# Results from PubChem BioAssay AID1918941 (Molecular Pharmacology Branch, DTP, NCI, 2023).
# Test system: SW 1271 complex spheroids, viability
# Assay: Anticancer human tumor SW 1271 cell line growth inhibition [LSD1];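 also: spheroids exposed to agents for 7 days before luminescence read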;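 as to viability, T/C: 100% = DMSO vehicle control viability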
# Details: for IC50: curve of first compound; for viability, T/C: stronger effect = lower value
# In short: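 Complex spheroids of tumor cells with HUVEC and human MSCs, exposed to iadademstat combined with other agents. Each agent tested in half-log steps from near clinical Cmax (else 10 microM top), DMSO ≤0.25%.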
# [1] = second compound 0.1 µM, first compound 0.0316 µM
# [2] = second compound 0.1 µM, first compound 0.1 µM
# [3] = second compound 0.1 µM, first compound 0.316 µM
# [4] = second compound 0.1 µM, first compound 1 µM
# [5] = second compound 0.1 µM, first compound 3.16 µM
# [6] = second compound 0.1 µM, first compound 10 µM
# [7] = second compound 0.316 µM, first compound 0.0316 µM
# [8] = second compound 0.316 µM, first compound 0.1 µM
# [9] = second compound 0.316 µM, first compound 0.316 µM
# [10] = second compound 0.316 µM, first compound 1 µM
# [11] = second compound 0.316 µM, first compound 3.16 µM
# [12] = second compound 0.316 µM, first compound 10 µM
# [13] = second compound 1 µM, first compound 0.0316 µM
# [14] = second compound 1 µM, first compound 0.1 µM
# [15] = second compound 1 µM, first compound 0.316 µM
# [16] = second compound 1 µM, first compound 1 µM
# [17] = second compound 1 µM, first compound 3.16 µM
# [18] = second compound 1 µM, first compound 10 µM
# [19] = second compound 3.16 µM, first compound 0.0316 µM
# [20] = second compound 3.16 µM, first compound 0.1 µM
# [21] = second compound 3.16 µM, first compound 0.316 µM
# [22] = second compound 3.16 µM, first compound 1 µM
# [23] = second compound 3.16 µM, first compound 3.16 µM
# [24] = second compound 3.16 µM, first compound 10 µM
# [25] = second compound 10 µM, first compound 0.0316 µM
# [26] = second compound 10 µM, first compound 0.1 µM
# [27] = second compound 10 µM, first compound 0.316 µM
# [28] = second compound 10 µM, first compound 1 µM
# [29] = second compound 10 µM, first compound 3.16 µM
# [30] = second compound 10 µM, first compound 10 µM
SMILES,IC50 (second compound 0.1 µM),IC50 (second compound 0.316 µM),IC50 (second compound 1 µM),IC50 (second compound 3.16 µM),IC50 (second compound 10 µM),"viability, T/C [1]","viability, T/C [2]","viability, T/C [3]","viability, T/C [4]","viability, T/C [7]","viability, T/C [8]","viability, T/C [9]","viability, T/C [10]","viability, T/C [13]","viability, T/C [14]","viability, T/C [15]","viability, T/C [16]","viability, T/C [19]","viability, T/C [20]","viability, T/C [21]",other results
CC(C)c1c(-c2ccccc2)nc2c(C#N)c[nH]n2c1=O + NC1CC1c1ccc(-c2cccc(O)c2)cc1,> 10 µM,> 10 µM,> 10 µM,9.23 µM,> 10 µM,71.8%,86%,78.7%,77.5%,74.7%,70.4%,80.9%,52.4%,66.4%,96.2%,78.4%,75%,70.5%,68.4%,70%,"viability, T/C [5]: 73.2%; viability, T/C [6]: 72.9%; viability, T/C [11]: 58.5%; viability, T/C [12]: 61.6%; viability, T/C [17]: 58.6%; viability, T/C [18]: 61.3%; viability, T/C [22]: 58.2%; viability, T/C [23]: 58.9%; viability, T/C [24]: 49.2%; viability, T/C [25]: 56.6%; viability, T/C [26]: 63%; viability, T/C [27]: 82.6%; viability, T/C [28]: 61.6%; viability, T/C [29]: 50.8%; viability, T/C [30]: 54.1%"
CC1COCCN1c1cc(-c2ccnn2C)c2ccnc(-c3ccn[nH]3)c2n1 (stereo not given) + NC1CC1c1ccc(-c2cccc(O)c2)cc1,0.0485 µM,0.0238 µM,0.0372 µM,0.0368 µM,0.0313 µM,51.6%,42.9%,39.4%,26.6%,49.7%,40.6%,39.1%,31%,55.4%,46.6%,30.6%,28.8%,54.7%,38.2%,40.2%,"viability, T/C (second compound 0.1 µM, first compound 0.00316 µM): 65.2%; viability, T/C (second compound 0.1 µM, first compound 0.01 µM): 62.7%; viability, T/C (second compound 0.316 µM, first compound 0.00316 µM): 55.5%; viability, T/C (second compound 0.316 µM, first compound 0.01 µM): 55.6%; viability, T/C (second compound 1 µM, first compound 0.00316 µM): 63.7%; viability, T/C (second compound 1 µM, first compound 0.01 µM): 51.1%; viability, T/C (second compound 3.16 µM, first compound 0.00316 µM): 58%; viability, T/C (second compound 3.16 µM, first compound 0.01 µM): 54.3%; viability, T/C [22]: 22.6%; viability, T/C (second compound 10 µM, first compound 0.00316 µM): 67.1%; viability, T/C (second compound 10 µM, first compound 0.01 µM): 51.5%; viability, T/C [25]: 50.3%; viability, T/C [26]: 41.6%; viability, T/C [27]: 40.2%; viability, T/C [28]: 24.9%"
COc1ccc([C@@H](O)c2cc(-c3ncnc4cc(N5CCOCC5)ccc34)c(F)cc2Cl)nn1 + NC1CC1c1ccc(-c2cccc(O)c2)cc1,0.616 µM,0.463 µM,0.664 µM,0.355 µM,0.351 µM,78.6%,79.9%,55%,44.4%,76.4%,76.8%,52.2%,38%,72.9%,76.6%,60.3%,43.7%,69.5%,64.8%,49.2%,"viability, T/C [5]: 31%; viability, T/C [6]: 21.9%; viability, T/C [11]: 37.3%; viability, T/C [12]: 22.1%; viability, T/C [17]: 31.7%; viability, T/C [18]: 26.4%; viability, T/C [22]: 38.5%; viability, T/C [23]: 30.5%; viability, T/C [24]: 19.7%; viability, T/C [25]: 60.5%; viability, T/C [26]: 58.4%; viability, T/C [27]: 50.3%; viability, T/C [28]: 40.2%; viability, T/C [29]: 27.5%; viability, T/C [30]: 20.5%"
